Values joined by “and” are separate entries in the source; they are usually repeats but may differ in a detail not shown here. Equal entries are not always repeated. Toxic doses and inconclusive results are not listed. Cut-off read from the data, not from the text of the source: active = T/C of 150% or more; inactive = T/C below 125%.
Test system: L1210 leukemia ip in BDF1 mice, survival T/C
Assay: NCI In Vivo Anticancer Drug Screen. Data for tumor model L1210 Leukemia (intraperitoneal) in B6D2F1 (BDF1) mice
Conditions: endpoint: mean survival time, higher = longer survival
Method in brief: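 Transplantable tumor model; survival measured in treated vs vehicle control mice. Value = treated/control.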

[1] = dose: 100.0 mg/kg/injection, schedule: Q01DX001 (ip), vehicle: saline
[2] = dose: 200.0 mg/kg/injection, schedule: Q01DX001 (ip), vehicle: saline
[3] = dose: 400.0 mg/kg/injection, schedule: Q01DX001 (ip), vehicle: saline
[4] = dose: 100.0 mg/kg/injection, schedule: Q01DX009 (ip), vehicle: saline with Tween-80
[5] = dose: 200.0 mg/kg/injection, schedule: Q01DX009 (ip), vehicle: saline with Tween-80
[6] = dose: 100.0 mg/kg/injection, schedule: Q01DX001 (ip), vehicle: carboxymethylcellulose (CMC)
[7] = dose: 200.0 mg/kg/injection, schedule: Q01DX001 (ip), vehicle: carboxymethylcellulose (CMC)
[8] = dose: 400.0 mg/kg/injection, schedule: Q01DX001 (ip), vehicle: carboxymethylcellulose (CMC)
[9] = dose: 50.0 mg/kg/injection, schedule: Q01DX001 (ip), vehicle: saline
[10] = dose: 100.0 mg/kg/injection, schedule: Q04DX003 (ip), vehicle: saline with Tween-80
[11] = dose: 200.0 mg/kg/injection, schedule: Q04DX003 (ip), vehicle: saline with Tween-80
[12] = dose: 400.0 mg/kg/injection, schedule: Q01DX009 (ip), vehicle: saline with Tween-80
[13] = dose: 400.0 mg/kg/injection, schedule: Q04DX003 (ip), vehicle: saline with Tween-80
[14] = dose: 100.0 mg/kg/injection, schedule: Q04DX003 (ip), vehicle: Klucel (hydroxypropylcellulose) (HPC)
[15] = dose: 200.0 mg/kg/injection, schedule: Q04DX003 (ip), vehicle: Klucel (hydroxypropylcellulose) (HPC)
[16] = dose: 400.0 mg/kg/injection, schedule: Q04DX003 (ip), vehicle: Klucel (hydroxypropylcellulose) (HPC)
[17] = dose: 100.0 mg/kg/injection, schedule: Q01DX009 (ip), vehicle: saline
[18] = dose: 100.0 mg/kg/injection, schedule: Q04DX003 (ip), vehicle: saline
[19] = dose: 200.0 mg/kg/injection, schedule: Q01DX009 (ip), vehicle: saline
[20] = dose: 200.0 mg/kg/injection, schedule: Q04DX003 (ip), vehicle: saline
[21] = dose: 100.0 mg/kg/injection, schedule: Q01DX009 (ip), vehicle: Klucel (hydroxypropylcellulose) (HPC)
[22] = dose: 400.0 mg/kg/injection, schedule: Q04DX003 (ip), vehicle: saline

Measured: T/C

CCCCCCCCc1cc[n+](C2=C([O-])c3ccccc3C(=O)C2=O)cc1
inactive: dose: 1.5 mg/kg/injection, schedule: Q01DX009 (ip), vehicle: saline 106 % of control | dose: 3.0 mg/kg/injection, schedule: Q01DX009 (ip), vehicle: saline 95 % of control | dose: 6.0 mg/kg/injection, schedule: Q01DX009 (ip), vehicle: saline 106 % of control

O=[N+]([O-])c1ccccc1SSSc1ccccc1[N+](=O)[O-]
inactive: [1] 89 % of control | [2] 93 % of control | [3] 101 % of control

Cc1ccc(C)c(NC(=O)NCc2ccco2)c1
inactive: [4] 97 % of control | [5] 89 % of control

Cc1ccnc(NC(=O)NCCCl)c1
inactive: [6] 103 % of control | [7] 108 % of control | [8] 108 % of control

Cc1ccc(CN(C)C)c(C(O)c2ccccc2)c1 (stereo unspecified)
inactive: [9] 96 % of control | [1] 96 % of control

COc1cccc(-c2nc3ccccc3s2)c1OC
inactive: dose: 25.0 mg/kg/injection, schedule: Q04DX003 (ip), vehicle: DMSO 88 % of control | dose: 50.0 mg/kg/injection, schedule: Q04DX003 (ip), vehicle: DMSO 95 % of control | dose: 100.0 mg/kg/injection, schedule: Q04DX003 (ip), vehicle: DMSO 92 % of control and 96 % of control

O=C(N/N=C\c1ccc(Cl)cc1Cl)c1ccco1
inactive: dose: 100.0 mg/kg/injection, schedule: Q01DX001 (ip), vehicle: other 90 % of control | dose: 200.0 mg/kg/injection, schedule: Q01DX001 (ip), vehicle: other 96 % of control | dose: 400.0 mg/kg/injection, schedule: Q01DX001 (ip), vehicle: other 93 % of control

O=C(NC(=S)Nc1cccc(O)c1)c1ccco1
inactive: [4] 98 % of control | [10] 104 % of control | [5] 115 % of control | [11] 107 % of control | [12] 95 % of control | [13] 102 % of control

COc1ccc(OC)c(NC(=O)c2ccc(Cl)cc2)c1
inactive: dose: 100.0 mg/kg/injection, schedule: Q01DX001 (ip), vehicle: saline with Tween-80 101 % of control | [4] 97 % of control | dose: 100.0 mg/kg/injection, schedule: Q04DX002 (ip), vehicle: saline with Tween-80 104 % of control and 110 % of control | [10] 94 % of control | dose: 200.0 mg/kg/injection, schedule: Q01DX001 (ip), vehicle: saline with Tween-80 97 % of control | [5] 95 % of control and 97 % of control | dose: 200.0 mg/kg/injection, schedule: Q04DX002 (ip), vehicle: saline with Tween-80 104 % of control and 92 % of control | [11] 97 % of control | dose: 400.0 mg/kg/injection, schedule: Q01DX001 (ip), vehicle: saline with Tween-80 95 % of control | [12] 102 % of control and 124 % of control | dose: 400.0 mg/kg/injection, schedule: Q04DX002 (ip), vehicle: saline with Tween-80 94 % of control and 108 % of control | [13] 95 % of control

COc1cccc(C)c1[N+](=O)[O-]
inactive: [14] 94 % of control | [15] 97 % of control | [16] 105 % of control

CCCCCCc1cc2c(cc1CCCC)CCC2
inactive: [9] 95 % of control | [1] 101 % of control | [2] 98 % of control | [3] 116 % of control

C=COCCN(C)C
inactive: dose: 50.0 mg/kg/injection, schedule: Q01DX009 (ip), vehicle: saline 90 % of control | [17] 93 % of control | [18] 105 % of control | [19] 93 % of control | [20] 89 % of control

CC12CC3CC(C)(C1)CC(SCCCCCN=C(N)CSSCC(N)=NCCCCCSC14CC5CC(C)(CC(C)(C5)C1)C4)(C3)C2
inactive: dose: 10.0 mg/kg/injection, schedule: Q04DX002 (ip), vehicle: Klucel (hydroxypropylcellulose) (HPC) 110 % of control | dose: 20.0 mg/kg/injection, schedule: Q04DX002 (ip), vehicle: Klucel (hydroxypropylcellulose) (HPC) 102 % of control | dose: 40.0 mg/kg/injection, schedule: Q04DX002 (ip), vehicle: Klucel (hydroxypropylcellulose) (HPC) 87 % of control

CCCCC(Cl)(CCCC)C(C)Sc1ccc([N+](=O)[O-])cc1 (stereo unspecified)
inactive: [6] 103 % of control | [7] 94 % of control | [8] 100 % of control

CCCCCCCCCCCC(O)CCCC (stereo unspecified)
inactive: [21] 90 % of control | [14] 96 % of control | dose: 200.0 mg/kg/injection, schedule: Q01DX009 (ip), vehicle: Klucel (hydroxypropylcellulose) (HPC) 95 % of control | [15] 91 % of control | [16] 90 % of control

CCOC(=O)/C(O)=C\c1n[n+]([O-])ccc1Cl
inactive: dose: 100.0 mg/kg/injection, schedule: Q04DX002 (ip), vehicle: Klucel (hydroxypropylcellulose) (HPC) 104 % of control | dose: 200.0 mg/kg/injection, schedule: Q04DX002 (ip), vehicle: Klucel (hydroxypropylcellulose) (HPC) 112 % of control | dose: 400.0 mg/kg/injection, schedule: Q04DX002 (ip), vehicle: Klucel (hydroxypropylcellulose) (HPC) 93 % of control

Cc1ccc(S(=O)C(c2ccccc2)C(c2ccccc2)C(C)O)cc1 (stereo unspecified)
inactive: [4] 89 % of control | [5] 89 % of control | [12] 91 % of control

C#CC(O)c1ccccc1 (stereo unspecified)
inactive: dose: 12.5 mg/kg/injection, schedule: Q04DX003 (ip), vehicle: Klucel (hydroxypropylcellulose) (HPC) 94 % of control | dose: 25.0 mg/kg/injection, schedule: Q04DX003 (ip), vehicle: Klucel (hydroxypropylcellulose) (HPC) 99 % of control | dose: 50.0 mg/kg/injection, schedule: Q04DX003 (ip), vehicle: Klucel (hydroxypropylcellulose) (HPC) 101 % of control

Nc1nc(N)c(CCCCc2ccccc2)c(C=O)n1
inactive: [21] 98 % of control

COc1cccc(CCNC(=O)CC(=O)O)c1OC
inactive: [18] 92 % of control | [20] 103 % of control | [22] 110 % of control

C/C=C/P(=O)(c1ccccc1)c1ccccc1
inactive: [9] 110 % of control | [1] 110 % of control | [2] 95 % of control | [3] 104 % of control

CC1(C)c2ccccc2C(C)(O)c2ccccc21
inactive: [4] 96 % of control | dose: 100.0 mg/kg/injection, schedule: Q04DX003 (ip), vehicle: other 104 % of control | [5] 93 % of control | dose: 200.0 mg/kg/injection, schedule: Q04DX003 (ip), vehicle: other 94 % of control | [12] 93 % of control | dose: 400.0 mg/kg/injection, schedule: Q04DX003 (ip), vehicle: other 107 % of control

CC(CCOC(=O)c1ccccc1)OC(=O)c1ccccc1 (stereo unspecified)
inactive: [1] 92 % of control | [2] 121 % of control | [3] 105 % of control

Cc1cc(NS(=O)(=O)c2ccc(N)cc2)sn1
inactive: [18] 87 % of control | [20] 92 % of control | [22] 97 % of control

Cc1cn(C2CC(O)C(COP(=O)(N3CC3)N3CC3)O2)c(=O)[nH]c1=O (stereo unspecified)
inactive: dose: 50.0 mg/kg/injection, schedule: Q04DX002 (ip), vehicle: saline 107 % of control | dose: 100.0 mg/kg/injection, schedule: Q04DX002 (ip), vehicle: saline 100 % of control | dose: 200.0 mg/kg/injection, schedule: Q04DX002 (ip), vehicle: saline 94 % of control

CC(C)CCC(O)c1c[nH]c(=O)[nH]c1=O (stereo unspecified)
inactive: [14] 105 % of control | [15] 105 % of control | [16] 94 % of control

C/C=C/C(=O)C12CCCCCCCCCC(=C1N1CCCCC1)C(=O)CC2C (stereo unspecified)
inactive: [1] 93 % of control | [17] 90 % of control | [2] 98 % of control | [19] 92 % of control | [3] 98 % of control | dose: 400.0 mg/kg/injection, schedule: Q01DX009 (ip), vehicle: saline 98 % of control

CCCC[N+](C)(C)CCCOC(=O)C1C2CC3OC(=O)C1C3C2 (stereo unspecified)
inactive: dose: 12.5 mg/kg/injection, schedule: Q01DX003 (ip), vehicle: saline with Tween-80 97 % of control | dose: 25.0 mg/kg/injection, schedule: Q01DX003 (ip), vehicle: saline with Tween-80 100 % of control | dose: 50.0 mg/kg/injection, schedule: Q01DX003 (ip), vehicle: saline with Tween-80 97 % of control | dose: 50.0 mg/kg/injection, schedule: Q04DX003 (ip), vehicle: saline with Tween-80 101 % of control | [10] 103 % of control

From PubChem BioAssay AID248 (DTP/NCI, 2004)
